Measurements: US20240398771A1, “TREATMENT OF SCLERODERMA AND RAYNAUD'S SYNDROME” (Aisa Pharma, Inc., priority 2023, published 2024)

Experiments:
participants with SSc-RP [1] = assay: Frequency of weekly symptomatic RP attacks (patient diary), Phase 2a Part A; assay type: in vivo, human; details: ITT Part A; for Weekly Symptomatic RP Attacks, Max / Weekly Symptomatic RP Attacks, Mean (SD) / Weekly Symptomatic RP Attacks, Min / Weekly Symptomatic RP Attacks, Q1 / Weekly Symptomatic RP Attacks, Q3: Table A-2, excluding outliers, last 7 days of dosing period
Experimental: Part A—Double-blind, Placebo-controlled, Parallel-group, Dose selection, will assess the safety and efficacy of two doses of cilnidipine (10 mg and 20 mg), alone and in combination with tadalafil. A total of 36 participants will be randomized to one of six pre-specified treatment arms. See Example 3 for data obtained in this phase of the study thus far, on 11 participants.
Please refer to FIG. 1 for treatment arms in Part A of the study. Dosing lasted or will last for 12 (±2) days in which participants self-administered or will self-administer daily doses of assigned treatment in the morning. Each participant took or will take one capsule and one tablet to blind the active therapy being received.
The relevant metrics measured by this tool daily are: • Study medication • SSc-RP symptoms (Reporting an attack including duration of attack) • Severity of the attack considering all symptoms of the attack e.g. tingling, numbness, pain, color changes (VAS 0-10 cm scale) • Participant's location at the time of the attack (inside home/outside home) • Selecting symptoms experienced during the attack (tingling, numbness, pain, color changes, other) • Pain rating during the attack (11-point Likert scale) • The RCS based on how much difficulty participants had with Raynaud's today, how many attacks the participant had, and how long they lasted. Participants will also be asked to consider how much pain, numbness, or other symptoms the Raynaud's caused in fingers (including painful sores), and how much the Raynaud's alone affected the use of hands today (VAS 0-10 cm scale).
Percent change from baseline evaluation for frequency of weekly RP attacks were or will be used as the primary efficacy variable. The sponsor-developed participant-informed diary will be used to record data. Frequency of weekly RP attacks is defined as the total number of RP attacks divided by the number of days with available diary data within the last 7 days of each dosing period then multiplied by 7. Total number of RP attacks during the last 7 days of screening period divided by the number of days with available data then multiplied by 7 will be used as baseline for the analysis of all periods.
Percentage change={(weekly RP attacks for the last 7 days of each dosing period−Baseline weekly RP attacks)/Baseline weekly RP attacks}*100%.
Absolute change=weekly RP attacks for the last 7 days of each dosing period−Baseline weekly RP attacks
Percent change from baseline evaluation for frequency of weekly RP attacks was and will be the primary efficacy endpoint. Frequency of weekly RP attacks is defined as the total number of RP attacks divided by the number of days with available diary data within the last 7 days of each dosing period then multiplied by 7. Total number of RP attacks during the last 7 days of screening period divided by the number of days with available data then multiplied by 7 will be used as baseline for the analysis of all periods.
The following data was actually obtained in accordance with the protocol and plan delineated in Examples 1 and 2. The accompanying data involved 11 patients out of the planned 76 patient study. The study was done in patients with scleroderma (systemic sclerosis) who had relatively frequent Raynaud symptoms as they needed to average at least one attack per day during a screening period of up to two weeks. In this first phase of this double-blind placebo-controlled, prospective randomized study, patients were treated in parallel and after meeting study criteria were randomized to receive either placebo, cilnidipine 10 mg daily, cilnidipine 20 mg daily, tadalafil 5 mg daily, cilnidipine 10 mg plus 5 mg of tadalafil, or cilnidipine 20 mg plus 5 mg of tadalafil.

participants with SSc-RP [2] = assay: SHAQ Visual Analog Scale - Raynaud's; assay type: in vivo, human; set-up: Visual Analog Scale-Raynaud's, Baseline, Mean / Visual Analog Scale-Raynaud's, Baseline, Median / Visual Analog Scale-Raynaud's, In Clinic Visit (Day 12), Mean / Visual Analog Scale-Raynaud's, In Clinic Visit (Day 12), Median: scale not given here; details: Modified ITT, Part A
Description: The SHAQ includes a Raynaud's VAS, which will be reported at screening and each in-clinic visit. The absolute change in Raynaud-VAS, assessed by the participants response to the SHAQ question ‘In the past 7 days, how much have your Raynaud's interfered with your daily activities?’ at baseline and the end of each dosing period will be calculated similar to frequency data as before. […]

[3] = Table A-1, last 7 days of dosing vs last 7 days of screening, listed as Cilnidipine 20 mg
[4] = Table A-1, last 7 days of dosing vs last 7 days of screening, listed as Pooled Cilnidipine
[5] = Table A-3 by baseline RCS, first sub-table (RCS <5.0), listed as Cilnidipine 10 mg
[6] = Table A-3 by baseline RCS, first sub-table (RCS <5.0), listed as Cilnidipine 20 mg
[7] = Table A-3 by baseline RCS, first sub-table (RCS <5.0), listed as Pooled Cilnidipine

COCCOC(=O)C1=C(C)NC(C)=C(C(=O)OC/C=C/c2ccccc2)C1c1cccc([N+](=O)[O-])c1 (centres unmarked) [Cilnidipine, 1,4-dihydro-2,6-dimethyl,4-(3-nitrophenyl)-3,5-pyridinedicarboxylic acid 2-methoxyethyl (2 E)-3-phenyl-2-propenyl ester]
Weekly Symptomatic RP Attacks Percent Change from Baseline, Max (participants with SSc-RP [1]; [3]): −28.6%
Weekly Symptomatic RP Attacks Percent Change from Baseline, Min (participants with SSc-RP [1]; [3]): −38.9%
Weekly Symptomatic RP Attacks Change from Baseline, Max (participants with SSc-RP [1]; [4]): −2.0
Weekly Symptomatic RP Attacks Change from Baseline, Min (participants with SSc-RP [1]; [4]): −7.0
Weekly Symptomatic RP Attacks Change from Baseline, Q1 (participants with SSc-RP [1]; [4]): −7.00
Weekly Symptomatic RP Attacks Change from Baseline, Q3 (participants with SSc-RP [1]; [4]): −2.00
Weekly Symptomatic RP Attacks Percent Change from Baseline, Max (participants with SSc-RP [1]; [4]): −28.6%
Weekly Symptomatic RP Attacks Percent Change from Baseline, Min (participants with SSc-RP [1]; [4]): −38.9%
Weekly Symptomatic RP Attacks Percent Change from Baseline, Q3 (participants with SSc-RP [1]; [4]): −28.57%
Weekly Symptomatic RP Attacks, Max (participants with SSc-RP [1]; listed as Cilnidipine 10 mg): 14.0, 14.0
Weekly Symptomatic RP Attacks, Mean (SD) (participants with SSc-RP [1]; listed as Cilnidipine 10 mg): 14.00
Weekly Symptomatic RP Attacks, Min (participants with SSc-RP [1]; listed as Cilnidipine 10 mg): 14.0, 14.0
Weekly Symptomatic RP Attacks, Q1 (participants with SSc-RP [1]; listed as Cilnidipine 10 mg): 14.00, 14.00
Weekly Symptomatic RP Attacks, Q3 (participants with SSc-RP [1]; listed as Cilnidipine 10 mg): 14.00, 14.00
Weekly Symptomatic RP Attacks, Max (participants with SSc-RP [1]; listed as Cilnidipine 20 mg): 11.0
Weekly Symptomatic RP Attacks, Mean (SD) (participants with SSc-RP [1]; listed as Cilnidipine 20 mg): 8.00 (4.243)
Weekly Symptomatic RP Attacks, Min (participants with SSc-RP [1]; listed as Cilnidipine 20 mg): 5.0
Weekly Symptomatic RP Attacks, Q1 (participants with SSc-RP [1]; listed as Cilnidipine 20 mg): 5.00
Weekly Symptomatic RP Attacks, Q3 (participants with SSc-RP [1]; listed as Cilnidipine 20 mg): 11.00
Weekly Symptomatic RP Attacks, Max (participants with SSc-RP [1]; listed as Pooled Cilnidipine): 14.0
Weekly Symptomatic RP Attacks, Mean (SD) (participants with SSc-RP [1]; listed as Pooled Cilnidipine): 10.00 (4.583)
Weekly Symptomatic RP Attacks, Min (participants with SSc-RP [1]; listed as Pooled Cilnidipine): 5.0
Weekly Symptomatic RP Attacks, Q1 (participants with SSc-RP [1]; listed as Pooled Cilnidipine): 5.00
Weekly Symptomatic RP Attacks, Q3 (participants with SSc-RP [1]; listed as Pooled Cilnidipine): 14.00
Weekly Symptomatic RP Attacks Percent Change from Baseline, Min (participants with SSc-RP [1]; Table A-3 by baseline RCS, first sub-table (RCS <5.0)): −33.3, −33.3%
Weekly Symptomatic RP Attacks Change from Baseline, Max (participants with SSc-RP [1]; [5]): −7.0, −7.0
Weekly Symptomatic RP Attacks Change from Baseline, Min (participants with SSc-RP [1]; [5]): −7.0, −7.0
Weekly Symptomatic RP Attacks Change from Baseline, Q1 (participants with SSc-RP [1]; [5]): −7.00, −7.00
Weekly Symptomatic RP Attacks Change from Baseline, Q3 (participants with SSc-RP [1]; [5]): −7.00, −7.00
Weekly Symptomatic RP Attacks Percent Change from Baseline, Max (participants with SSc-RP [1]; [5]): −33.3, −33.3%
Weekly Symptomatic RP Attacks Change from Baseline, Max (participants with SSc-RP [1]; [6]): −2.0
Weekly Symptomatic RP Attacks Change from Baseline, Min (participants with SSc-RP [1]; [6]): −7.0
Weekly Symptomatic RP Attacks Change from Baseline, Q1 (participants with SSc-RP [1]; [6]): −7.00
Weekly Symptomatic RP Attacks Change from Baseline, Q3 (participants with SSc-RP [1]; [6]): −2.00
Weekly Symptomatic RP Attacks Percent Change from Baseline, Max (participants with SSc-RP [1]; [6]): −28.6%
Weekly Symptomatic RP Attacks Percent Change from Baseline, Min (participants with SSc-RP [1]; [6]): −38.9%
Weekly Symptomatic RP Attacks Percent Change from Baseline, Q3 (participants with SSc-RP [1]; [6]): −28.57%
Weekly Symptomatic RP Attacks Change from Baseline, Max (participants with SSc-RP [1]; [7]): −2.0
Weekly Symptomatic RP Attacks Change from Baseline, Min (participants with SSc-RP [1]; [7]): −7.0
Weekly Symptomatic RP Attacks Change from Baseline, Q1 (participants with SSc-RP [1]; [7]): −7.00
Weekly Symptomatic RP Attacks Change from Baseline, Q3 (participants with SSc-RP [1]; [7]): −2.00
Weekly Symptomatic RP Attacks Percent Change from Baseline, Max (participants with SSc-RP [1]; [7]): −28.6%
Weekly Symptomatic RP Attacks Percent Change from Baseline, Min (participants with SSc-RP [1]; [7]): −38.9%
Weekly Symptomatic RP Attacks Percent Change from Baseline, Q3 (participants with SSc-RP [1]; [7]): −28.57%
Visual Analog Scale-Raynaud's, Baseline, Mean (participants with SSc-RP [2]; Cilnidipine 10 mg): 1.600
Visual Analog Scale-Raynaud's, Baseline, Median (participants with SSc-RP [2]; Cilnidipine 10 mg): 1.000
Visual Analog Scale-Raynaud's, Change from Baseline, Median (participants with SSc-RP [2]; Cilnidipine 10 mg): 0.350
Visual Analog Scale-Raynaud's, In Clinic Visit (Day 12), Median (participants with SSc-RP [2]; Cilnidipine 10 mg): 1.700
Visual Analog Scale-Raynaud's, Baseline, Mean (participants with SSc-RP [2]; Cilnidipine 20 mg): 2.300
Visual Analog Scale-Raynaud's, Baseline, Median (participants with SSc-RP [2]; Cilnidipine 20 mg): 2.500
Visual Analog Scale-Raynaud's, Change from Baseline, Median (participants with SSc-RP [2]; Cilnidipine 20 mg): −1.100
Visual Analog Scale-Raynaud's, In Clinic Visit (Day 12), Median (participants with SSc-RP [2]; Cilnidipine 20 mg): 1.100
Visual Analog Scale-Raynaud's, Percent Change from Baseline, Median (participants with SSc-RP [2]; Cilnidipine 20 mg): −44.00%
